Source: patent publication US8952024B2, “Herbicidal pyrimidone derivatives” (E I du Pont de Nemours and Company, priority 2009, dated 2015)

Columns and labels:
Format in all cases: in vivo
[1] = test system: barnyardgrass (Echinochloa crus-galli); assay: Test A pre-/postemergence plant response; conditions: for Barnyardgrass plant response rating: visual injury, 0 to 100 scale (0 no effect, 100 complete control), approx. ten days
Procedure, shortened: (§1)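 Approximately ten days after concurrent pre- and postemergence spraying in a greenhouse, plants were compared with untreated controls and rated visually for injury, 0 = no effect to 100 = complete control. Preemergence spray was directed onto loam/sand soil; postemergence targeted 1–2 leaf seedlings.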

[2] = test system: corn (Zea mays); assay: Test A pre-/postemergence plant response; conditions: for Corn plant response rating: visual injury, 0 to 100 scale (0 no effect, 100 complete control), approx. ten days
Procedure, shortened: as §1

[3] = test system: giant foxtail (Setaria faberii); assay: Test A pre-/postemergence plant response; conditions: for Foxtail, Giant plant response rating: visual injury, 0 to 100 scale (0 no effect, 100 complete control), approx. ten days
Procedure, shortened: as §1

[4] = test system: large crabgrass (Digitaria sanguinalis); assay: Test A pre-/postemergence plant response; conditions: for Crabgrass, Large plant response rating: visual injury, 0 to 100 scale (0 no effect, 100 complete control), approx. ten days
Procedure, shortened: as §1

[5] = test system: morningglory (Ipomoea spp.); assay: Test A pre-/postemergence plant response; conditions: for Morningglory plant response rating: visual injury, 0 to 100 scale (0 no effect, 100 complete control), approx. ten days
Procedure, shortened: as §1

[6] = test system: pigweed (Amaranthus retroflexus); assay: Test A pre-/postemergence plant response; conditions: for Pigweed plant response rating: visual injury, 0 to 100 scale (0 no effect, 100 complete control), approx. ten days
Procedure, shortened: as §1

[7] = test system: velvetleaf (Abutilon theophrasti); assay: Test A pre-/postemergence plant response; conditions: for Velvetleaf plant response rating: visual injury, 0 to 100 scale (0 no effect, 100 complete control), approx. ten days
Procedure, shortened: as §1

[8] = test system: wheat (Triticum aestivum); assay: Test A pre-/postemergence plant response; conditions: for Wheat plant response rating: visual injury, 0 to 100 scale (0 no effect, 100 complete control), approx. ten days
Procedure, shortened: as §1

[9] = test system: windgrass (Apera spica-venti); assay: Test B postemergence plant response; conditions: Postemergence
Procedure, shortened: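 Plants grown in peat/vermiculite medium were sprayed postemergence at 2–18 cm height (1- to 4-leaf stage). After 13–15 days in the greenhouse, response was rated visually against untreated controls on a 0–100 scale (0 no effect, 100 complete control).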

[10] = test system: barnyardgrass (Echinochloa crus-galli); assay: Test B flooded paddy test; conditions: for Plant response rating, Barnyardgrass: Flood (flooded paddy test), 13 to 15 days; for Barnyardgrass plant response rating: Flood, 31 g ai/ha, scale 0 to 100 (0 no effect, 100 complete control)
Procedure, shortened: (§2)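 2-leaf seedlings; pots flooded 3 cm over soil at treatment; cpd dosed into floodwater, depth kept constant. Greenhouse 13–15 d. Visual rating vs untreated controls, 0 = no effect, 100 = complete control.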

[11] = test system: ducksalad (Heteranthera limosa); assay: Test B flooded paddy test; conditions: for Plant response rating, Ducksalad: Flood (flooded paddy test), 13 to 15 days; for Ducksalad plant response rating: Flood, 31 g ai/ha, scale 0 to 100 (0 no effect, 100 complete control)
Procedure, shortened: as §2

[12] = test system: rice (Oryza sativa); assay: Test B flooded paddy test; conditions: for Plant response rating, Rice: Flood (flooded paddy test), 13 to 15 days; for Rice plant response rating: Flood, 31 g ai/ha, scale 0 to 100 (0 no effect, 100 complete control)
Procedure, shortened: as §2

[13] = test system: umbrella sedge (Cyperus difformis); assay: Test B flooded paddy test; conditions: for Plant response rating, Sedge, Umbrella: Flood (flooded paddy test), 13 to 15 days; for Sedge, Umbrella plant response rating: Flood, 31 g ai/ha, scale 0 to 100 (0 no effect, 100 complete control)
Procedure, shortened: as §2

[14] = Postemergence, 125 g ai/ha, 0 to 100 scale where 0 is no effect and 100 is complete control
[15] = Preemergence, 125 g ai/ha, 0 to 100 scale, 0 = no effect, 100 = complete control
[16] = Preemergence, 500 g ai/ha, 0 to 100 scale, 0 = no effect, 100 = complete control
[17] = 31 g ai/ha, 0 to 100 scale (0 no effect, 100 complete control)
[18] = 125 g ai/ha, scale 0 to 100 (0 no effect, 100 complete control)
[19] = 250 g ai/ha, scale 0 to 100 (0 no effect, 100 complete control), 13 to 15 days
[20] = 125 g ai/ha, scale 0 to 100, 0 is no effect, 100 is complete control
[21] = 250 g ai/ha, flooded paddy test, visual rating on 0 to 100 scale (0 no effect, 100 complete control) after 13 to 15 days
[22] = 62 g ai/ha, scale of 0 to 100 where 0 is no effect and 100 is complete control

`CCCn1c(-c2cc(Cl)cc(Cl)c2)ncc(C(=O)C2=C(O)CCCC2=O)c1=O` [Compound 173] was tested, and the “Plant response rating, Barnyardgrass” value [1, 14] was 90, the “Barnyardgrass plant response rating” value ([1]; Postemergence, 500 g ai/ha) was 100 and the “Plant response rating, Barnyardgrass” value [1, 15] was 0. For the same compound, the “Plant response rating, Barnyardgrass” value [1, 16] was 60, the “Plant response rating, Corn” value [2, 14] was 0 and the “Corn plant response rating” value ([2]; Postemergence, 500 g ai/ha) was 20. For the same compound, the “Plant response rating, Corn” value [2, 15] was 0, the “Plant response rating, Corn” value [2, 16] was 10 and the “Plant response rating, Foxtail, Giant” value [3, 14] was 70. The “Foxtail, Giant plant response rating” value ([3]; Postemergence, 500 g ai/ha) was 90, the “Plant response rating, Foxtail, Giant” value [3, 15] was 20 and the “Plant response rating, Foxtail, Giant” value [3, 16] was 40. For the same compound, the “Plant response rating, Crabgrass, Large” value [4, 14] was 70, the “Crabgrass, Large plant response rating” value ([4]; Postemergence, 500 g ai/ha) was 90 and the “Plant response rating, Crabgrass, Large” value [4, 15] was 40. For the same compound, the “Plant response rating, Crabgrass, Large” value [4, 16] was 100, the “Plant response rating, Morningglory” value [5, 14] was 100 and the “Morningglory plant response rating” value ([5]; Postemergence, 500 g ai/ha) was 100. For the same compound, the “Plant response rating, Morningglory” value [5, 15] was 0, the “Plant response rating, Pigweed” value [6, 14] was 100 and the “Pigweed plant response rating” value ([6]; Postemergence, 500 g ai/ha) was 100. For the same compound, the “Plant response rating, Pigweed” value [6, 15] was 50, the “Plant response rating, Pigweed” value [6, 16] was 90 and the “Plant response rating, Velvetleaf” value [7, 14] was 100. The “Velvetleaf plant response rating” value ([7]; Postemergence, 500 g ai/ha) was 100, the “Plant response rating, Velvetleaf” value [7, 15] was 70 and the “Plant response rating, Velvetleaf” value [7, 16] was 100. The “Plant response rating, Wheat” value [8, 14] was 0, the “Wheat plant response rating” value ([8]; Postemergence, 500 g ai/ha) was 60 and the “Plant response rating, Wheat” value [8, 15] was 0. For the same compound, the “Plant response rating, Wheat” value [8, 16] was 20, the “Plant response rating, Windgrass” value [9, 17] was 30 and the “Plant response rating, Windgrass” value [9, 18] was 70. The “Plant response rating, Windgrass” value [9, 19] was 75, the “Plant response rating, Barnyardgrass” value [10, 20] was 15 and the “Barnyardgrass plant response rating” value [10] was 0. The “Plant response rating, Ducksalad” value [11, 20] was 75, the “Ducksalad plant response rating” value [11] was 30 and the “Plant response rating, Rice” value [12, 20] was 15. The “Rice plant response rating” value [12] was 0, the “Plant response rating, Sedge, Umbrella” value [13, 20] was 85 and the “Sedge, Umbrella plant response rating” value [13] was 0.
With `O=C1CCCC(O)=C1C(=O)c1cnc(-c2ccsc2)n(C2CCOCC2)c1=O` [Compound 186] the “Plant response rating, Barnyardgrass” value [1, 14] was 80, the “Barnyardgrass plant response rating” value ([1]; Postemergence, 500 g ai/ha) was 90 and the “Plant response rating, Barnyardgrass” value [1, 15] was 0. The “Plant response rating, Barnyardgrass” value [1, 16] was 60, the “Plant response rating, Corn” value [2, 14] was 0 and the “Corn plant response rating” value ([2]; Postemergence, 500 g ai/ha) was 60. For the same compound, the “Plant response rating, Corn” value [2, 15] was 0, the “Plant response rating, Corn” value [2, 16] was 0 and the “Plant response rating, Foxtail, Giant” value [3, 14] was 80. For the same compound, the “Foxtail, Giant plant response rating” value ([3]; Postemergence, 500 g ai/ha) was 90, the “Plant response rating, Foxtail, Giant” value [3, 15] was 20 and the “Plant response rating, Foxtail, Giant” value [3, 16] was 60. The “Plant response rating, Crabgrass, Large” value [4, 14] was 90, the “Crabgrass, Large plant response rating” value ([4]; Postemergence, 500 g ai/ha) was 90 and the “Plant response rating, Crabgrass, Large” value [4, 15] was 30. The “Plant response rating, Crabgrass, Large” value [4, 16] was 80, the “Plant response rating, Morningglory” value [5, 14] was 100 and the “Morningglory plant response rating” value ([5]; Postemergence, 500 g ai/ha) was 100. The “Plant response rating, Morningglory” value [5, 15] was 20, the “Plant response rating, Morningglory” value [5, 16] was 90 and the “Plant response rating, Pigweed” value [6, 14] was 100. The “Pigweed plant response rating” value ([6]; Postemergence, 500 g ai/ha) was 100, the “Plant response rating, Pigweed” value [6, 15] was 50 and the “Plant response rating, Pigweed” value [6, 16] was 100. For the same compound, the “Plant response rating, Velvetleaf” value [7, 14] was 100, the “Velvetleaf plant response rating” value ([7]; Postemergence, 500 g ai/ha) was 100 and the “Plant response rating, Velvetleaf” value [7, 15] was 60. The “Plant response rating, Velvetleaf” value [7, 16] was 100, the “Plant response rating, Wheat” value [8, 14] was 0 and the “Wheat plant response rating” value ([8]; Postemergence, 500 g ai/ha) was 0. The “Plant response rating, Wheat” value [8, 15] was 0, the “Plant response rating, Wheat” value [8, 16] was 0 and the “Plant response rating, Windgrass” value [9, 17] was 10. For the same compound, the “Plant response rating, Windgrass” value [9, 18] was 50, the “Plant response rating, Windgrass” value [9, 19] was 65 and the “Plant response rating, Flood, Barnyardgrass” value [10, 21] was 30. For the same compound, the “Plant response rating, Barnyardgrass” value [10, 22] was 20, the “Plant response rating, Barnyardgrass” value [10, 20] was 30 and the “Barnyardgrass plant response rating” value [10] was 0. The “Plant response rating, Flood, Ducksalad” value [11, 21] was 100, the “Plant response rating, Ducksalad” value [11, 22] was 90 and the “Plant response rating, Ducksalad” value [11, 20] was 90. For the same compound, the “Ducksalad plant response rating” value [11] was 90, the “Plant response rating, Flood, Rice” value [12, 21] was 65 and the “Plant response rating, Rice” value [12, 22] was 20. The “Plant response rating, Rice” value [12, 20] was 45, the “Rice plant response rating” value [12] was 10 and the “Plant response rating, Flood, Sedge, Umbrella” value [13, 21] was 90. The “Plant response rating, Sedge, Umbrella” value [13, 22] was 80, the “Plant response rating, Sedge, Umbrella” value [13, 20] was 80 and the “Sedge, Umbrella plant response rating” value [13] was 70.
